Data on 25 molecules can be found in patent US20190119282A1, “IMIDAZOPYRIDAZINES USEFUL AS INHIBITORS OF THE PAR-2 SIGNALING PATHWAY” (Vertex Pharmaceuticals Incorporated, priority 2013, published 2019).

Where only a bound is given, the exact number is not on record here.

Assay [1] concerns the target T1, PAR2 (HT-29 cells, SLIGKV activation) (Homo sapiens, UniProt P55085).
T1 construct: host or cells: HT-29 cells
T1 sequence (P55085 26-397): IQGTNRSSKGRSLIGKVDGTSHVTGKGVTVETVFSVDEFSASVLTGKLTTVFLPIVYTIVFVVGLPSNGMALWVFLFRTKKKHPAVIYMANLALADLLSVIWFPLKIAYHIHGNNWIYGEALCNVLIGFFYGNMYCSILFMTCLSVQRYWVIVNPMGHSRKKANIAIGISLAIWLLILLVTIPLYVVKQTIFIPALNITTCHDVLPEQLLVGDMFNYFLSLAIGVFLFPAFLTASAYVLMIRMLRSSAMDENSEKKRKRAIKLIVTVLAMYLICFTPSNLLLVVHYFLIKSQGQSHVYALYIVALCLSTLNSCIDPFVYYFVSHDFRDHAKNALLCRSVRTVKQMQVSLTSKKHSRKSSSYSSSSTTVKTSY
Nature of the assay: Ca FLIPR TETRA assay, ANTAGONIST mode, stimulation with 8 μM SLIGKV. The following applies: HT-29 cells, antagonist mode, stimulation with 8 μM SLIGKV. It is filed as cell-based. The essentials:
(§1)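 Antagonist-mode FLIPR Tetra Ca2+ readout: after 30 min r.t. compound pre-incubation, HT-29 cells are challenged with trypsin (3.1 U/mL final), SLIGKV (8 μM), thrombin (1 U/mL) or UTP (0.6 μM). Cells were plated overnight in 1% FBS medium and dye-loaded with Calcium 5; an initial read checks compound agonism.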

Assay [2] deals with T2, PAR2 (HT-29 cells, trypsin activation) (Homo sapiens, UniProt P55085).
T2 construct: host or cells: HT-29 cells
T2 sequence (P55085 26-397): T1 sequence (P55085 26-397)
Nature of the assay: Ca FLIPR TETRA assay, ANTAGONIST mode, stimulation with 3.1 U/mL trypsin. It is filed as cell-based. The conditions noted are these: HT-29 cells, antagonist mode, stimulation with 3.1 U/mL trypsin. The essentials:
as §1

Assay [3] concerns Thrombin-stimulated Ca2+ response in HT-29 cells. Nature of the assay: Ca FLIPR TETRA assay, ANTAGONIST mode, stimulation with 1 U/mL Thrombin. The format is cell-based, human. The following applies: Homo sapiens; HT-29 cells, antagonist mode, stimulation with 1 U/mL Thrombin. In short, it runs like this: as §1
For assay [4], the system named is UTP-stimulated Ca2+ response in HT-29 cells. Nature of the assay: Ca FLIPR TETRA assay, ANTAGONIST mode, stimulation with 0.6 μM UTP. It is filed as cell-based, human. The following applies: Homo sapiens; HT-29 cells, antagonist mode, stimulation with 0.6 μM UTP. In short, it runs like this: as §1

With `CC(C)c1cc(-c2ccc(F)c(F)c2)nn2cc(C(=O)N3CCN(C(=O)[C@H]4C[C@](O)(C(F)(F)F)C4)CC3(C)C)nc12` [Compound I-257], the IC50 – broadly, the midpoint of a concentration-inhibition curve – in assay [1] is 0.1 nM; in assay [2] it was 0.2 nM; in assay [3] it was over 100 nM; in assay [4] it was over 100 nM.
Take `CC(C)c1cc(-c2ccc(F)c(F)c2)nn2cc(C(=O)N3CCN(C(=O)c4ccn[nH]4)CC3(C)C)nc12` [Compound I-258]: the IC50 is 1.7 nM in assay [1], 1.9 nM in assay [2], over 1000 nM in assay [3] and over 1000 nM in assay [4].
For the molecule `CC(C)c1cc(-c2ccc(F)c(F)c2)nn2cc(C(=O)N3CCN(C(=O)c4ccncn4)CC3(C)C)nc12` [Compound I-259], the IC50 in assay [1] was 6.2 nM; in assay [2] it was 16.5 nM; in assay [3], over 1000 nM; in assay [4], over 1000 nM.
Regarding `Cc1cc(-c2cc(C(C)C)c3nc(C(=O)N4CCN(C(=O)[C@H]5C[C@](O)(C(F)(F)F)C5)CC4(C)C)cn3n2)ccc1F` [Compound I-260], the IC50 in assay [1] is 0.7 nM; in assay [2], 1.1 nM; in assay [3] it was over 100 nM; in assay [4], over 100 nM.
On to `Cc1cc(-c2cc(C(C)C)c3nc(C(=O)N4CCN(C(=O)c5ccn[nH]5)CC4(C)C)cn3n2)ccc1F` [Compound I-261], for which the IC50 is 3.5 nM in assay [1], 6.5 nM in assay [2], over 1000 nM in assay [3] and over 1000 nM in assay [4].
With `Cc1cc(-c2cc(C(C)C)c3nc(C(=O)N4CCN(C(=O)c5ccncn5)CC4(C)C)cn3n2)ccc1F` [Compound I-262], the IC50 in assay [1] is 9.2 nM; in assay [2], 14.5 nM; in assay [3], over 1000 nM; in assay [4] it was over 1000 nM.
Turning to `Cc1ccc(-c2cc(C(C)C)c3nc(C(=O)N4CCN(C(=O)[C@H]5C[C@@](O)(C(F)(F)F)C5)CC4(C)C)cn3n2)cc1` [Compound I-263], the concentration for half-maximal inhibition (IC50) in assay [1] was 6.5 nM; in assay [2] it was 7.2 nM; in assay [3] it was 220 nM; in assay [4] it was over 1000 nM.
As to `CC(C)c1cc(-c2ccc(F)c(F)c2)nn2cc(C(=O)N3CCN(C(=O)[C@H]4C[C@@](O)(C(F)(F)F)C4)CC3(C)C)nc12` [Compound I-264], the IC50 was 3.1 nM in assay [1], 5.2 nM in assay [2], over 1000 nM in assay [3] and over 1000 nM in assay [4].
With `Cc1cc(-c2cc(C(C)C)c3nc(C(=O)N4CCN(C(=O)[C@H]5C[C@@](O)(C(F)(F)F)C5)CC4(C)C)cn3n2)ccc1F` [Compound I-265], the IC50 in assay [1] was 3.9 nM; in assay [2], 5.6 nM; in assay [3], 570 nM; in assay [4], over 1000 nM.
The matching figures for `CC(C)(C)c1cc(-c2ccc(F)cc2)nn2cc(C(=O)N3CCN(c4cscn4)C(=O)C3(C)C)nc12` [Compound I-266]: 0.6 nM, 1 nM, over 100 nM and over 1000 nM.
`CC(C)(C)c1cc(-c2ccc(F)cc2)nn2cc(C(=O)N3CCN(CC#N)C(=O)C3(C)C)nc12` [Compound I-267]: the IC50 in assay [1] was 1.4 nM; in assay [2], 2 nM; in assay [3], 560 nM; in assay [4], over 1000 nM.
In the case of `CC1(C)CN(C(=O)c2ccncn2)CCN1C(=O)c1cn2nc(-c3ccc(F)cc3)cc(C(F)(F)F)c2n1` [Compound I-268], the IC50 in assay [1] was 64.5 nM; in assay [2], 104 nM; in assay [3], over 1000 nM; in assay [4] it was over 1000 nM.
For the molecule `CC1(C)CN(C(=O)c2nc[nH]n2)CCN1C(=O)c1cn2nc(-c3ccc(F)cc3)cc(C(F)(F)F)c2n1` [Compound I-269], the IC50 was 90.5 nM in assay [1], 120 nM in assay [2], over 1000 nM in assay [3] and over 1000 nM in assay [4].
For `CC1(C)CN(C(=O)c2ncc[nH]2)CCN1C(=O)c1cn2nc(-c3ccc(F)cc3)cc(C(F)(F)F)c2n1` [Compound I-270], the IC50 was 47.5 nM in assay [1], 71 nM in assay [2], over 1000 nM in assay [3] and over 1000 nM in assay [4].
`CC1(C)CN(C(=O)c2ccn[nH]2)CCN1C(=O)c1cn2nc(-c3ccc(F)cc3)cc(C(F)(F)F)c2n1` [Compound I-271]: the IC50 was 13.3 nM in assay [1], 30.3 nM in assay [2], over 1000 nM in assay [3] and over 1000 nM in assay [4].
In the case of `CC1(C)CN(C(=O)C2CC(O)(C(F)(F)F)C2)CCN1C(=O)c1cn2nc(-c3ccc(F)cc3)cc(C(F)(F)F)c2n1` (stereo not shown) [Compound I-272], the IC50 in assay [1] was 1.5 nM; in assay [2], 2.5 nM; in assay [3], over 1000 nM; in assay [4], over 1000 nM.
In the case of `CC(C)c1cc(-c2ccc(C(F)(F)F)c(F)c2)nn2cc(C(=O)N3CCNC(=O)C3(C)C)nc12` [Compound I-273], the IC50 in assay [1] was 0.7 nM; in assay [2], 1.2 nM; in assay [3], over 1000 nM; in assay [4], over 1000 nM.
As for `CC(C)c1cc(-c2ccc(F)cc2)nn2cc(C(=O)N3CCN(C#N)C(=O)C3(C)C)nc12` [Compound I-274], the IC50 was 2.6 nM in assay [1], 4.6 nM in assay [2], over 1000 nM in assay [3] and over 1000 nM in assay [4].
For the molecule `CC(C)c1cc(-c2ccc(F)cc2)nn2cc(C(=O)N3CCN(c4nn[nH]n4)C(=O)C3(C)C)nc12` [Compound I-275], the IC50 in assay [1] was 9.8 nM; in assay [2] it was 16.7 nM; in assay [3], over 1000 nM; in assay [4] it was over 1000 nM.
As to `CC(C)c1cc(-c2ccc(C(F)(F)F)c(F)c2)nn2cc(C(=O)N3CCN(C(=O)[C@H]4C[C@](O)(C(F)(F)F)C4)CC3(C)C)nc12` [Compound I-276], the IC50 in assay [1] was 0.4 nM; in assay [2] it was 0.4 nM; in assay [3], over 1000 nM; in assay [4], over 1000 nM.
Regarding `CC(C)c1cc(-c2ccc(C(F)(F)F)c(F)c2)nn2cc(C(=O)N3CCN(C(=O)c4ccn[nH]4)CC3(C)C)nc12` [Compound I-277], the IC50 in assay [1] was 1.3 nM; in assay [2] it was 1.3 nM; in assay [3] it was over 1000 nM; in assay [4], over 1000 nM.
Consider `CC(C)c1cc(-c2ccc(C(F)(F)F)c(F)c2)nn2cc(C(=O)N3CCN(C(=O)c4ccncn4)CC3(C)C)nc12` [Compound I-278], for which the IC50 in assay [1] is 2.1 nM; in assay [2], 2.8 nM; in assay [3], over 1000 nM; in assay [4] it was over 1000 nM.
`CC(C)c1cc(-c2ccc(C(F)(F)F)cc2)nn2cc(C(=O)N3CCN(C(=O)c4nc[nH]n4)CC3(C)C)nc12` [Compound I-279]: the IC50 in assay [1] was 3.3 nM; in assay [2], 4.6 nM; in assay [3], over 1000 nM; in assay [4], over 1000 nM.
As for `Cc1nnc(C(=O)N2CCN(C(=O)c3cn4nc(-c5ccc(C(F)(F)F)cc5)cc(C(C)C)c4n3)C(C)(C)C2)o1` [Compound I-280], the IC50 in assay [1] was 9.6 nM; in assay [2], 6 nM; in assay [3], over 1000 nM; in assay [4], over 1000 nM.
Consider `CC(C)c1cc(-c2ccc(C(F)(F)F)cc2)nn2cc(C(=O)N3CCN(C(=O)c4ccccn4)CC3(C)C)nc12` [Compound I-281], for which the IC50 was 2.5 nM in assay [1], 3.6 nM in assay [2], over 1000 nM in assay [3] and over 1000 nM in assay [4].
